Several values for one entry are separate records, joined by “and”; a condition that tells them apart may be missing. Equal values may be shown once.
Experiment: xn = mol fraction of the nth substance listed

C1CCOC1 + CO
Settings	viscosity
298 K, 101 kPa, x1 = 0.0397	0.527 mPa·s
298 K, 101 kPa, x1 = 0.0463	0.5241 mPa·s
298 K, 101 kPa, x1 = 0.0629	0.5179 mPa·s
298 K, 101 kPa, x1 = 0.0984	0.5053 mPa·s
298 K, 101 kPa, x1 = 0.1593	0.49 mPa·s
298 K, 101 kPa, x1 = 0.2295	0.4758 mPa·s
298 K, 101 kPa, x1 = 0.3081	0.463 mPa·s
298 K, 101 kPa, x1 = 0.3952	0.4525 mPa·s
298 K, 101 kPa, x1 = 0.5068	0.4445 mPa·s
298 K, 101 kPa, x1 = 0.6498	0.4398 mPa·s
298 K, 101 kPa, x1 = 0.8052	0.4449 mPa·s
298.15 K, 101 kPa, x1 = 0.3	0.4761 mPa·s
298.15 K, 101 kPa, x1 = 0.3076	0.5025 mPa·s and 0.5015 mPa·s and 0.515 mPa·s
303 K, 101.3 kPa, x1 = 0.0471	0.474 mPa·s
303 K, 101.3 kPa, x1 = 0.1	0.452 mPa·s
303 K, 101.3 kPa, x1 = 0.1599	0.435 mPa·s
303 K, 101.3 kPa, x1 = 0.2285	0.406 mPa·s
303 K, 101.3 kPa, x1 = 0.3075	0.38 mPa·s
303 K, 101.3 kPa, x1 = 0.3998	0.373 mPa·s
303 K, 101.3 kPa, x1 = 0.509	0.356 mPa·s
303 K, 101.3 kPa, x1 = 0.6399	0.356 mPa·s
303 K, 101.3 kPa, x1 = 0.7995	0.384 mPa·s
313 K, 101.3 kPa, x1 = 0.0471	0.395 mPa·s
313 K, 101.3 kPa, x1 = 0.1	0.36 mPa·s
313 K, 101.3 kPa, x1 = 0.1599	0.35 mPa·s
313 K, 101.3 kPa, x1 = 0.2285	0.333 mPa·s
313 K, 101.3 kPa, x1 = 0.3075	0.31 mPa·s
313 K, 101.3 kPa, x1 = 0.3998	0.294 mPa·s
313 K, 101.3 kPa, x1 = 0.509	0.3 mPa·s
313 K, 101.3 kPa, x1 = 0.6399	0.294 mPa·s
313 K, 101.3 kPa, x1 = 0.7995	0.332 mPa·s

O=S(=O)([O-])[O-].[Mn+2] + [2H]O[2H]
viscosity [mPa·s], 101 kPa
Settings	x1 = 0.005	x1 = 0.012	x1 = 0.02	x1 = 0.029	x1 = 0.037
298.15 K	1.297	1.59	2.183	3.14	4.452
308.15 K	1	1.247	1.696	2.404	3.327
318.15 K	0.827	1.008	1.371	1.912	2.575

C1CCOC1 + CC(C)O
101 kPa
Settings	viscosity
298.15 K, x1 = 0.05	1.706 mPa·s
298.15 K, x1 = 0.1	1.445 mPa·s
298.15 K, x1 = 0.15	1.248 mPa·s
298.15 K, x1 = 0.2001	1.113 mPa·s
298.15 K, x1 = 0.25	0.988 mPa·s
298.15 K, x1 = 0.3	0.896 mPa·s
298.15 K, x1 = 0.35	0.812 mPa·s
298.15 K, x1 = 0.4	0.752 mPa·s
298.15 K, x1 = 0.45	0.703 mPa·s
298.15 K, x1 = 0.5	0.659 mPa·s and 0.6917 mPa·s
298.15 K, x1 = 0.55	0.623 mPa·s
298.15 K, x1 = 0.6	0.594 mPa·s
298.15 K, x1 = 0.65	0.567 mPa·s
298.15 K, x1 = 0.7	0.545 mPa·s
298.15 K, x1 = 0.75	0.526 mPa·s
298.15 K, x1 = 0.8	0.511 mPa·s
298.15 K, x1 = 0.85	0.497 mPa·s
298.15 K, x1 = 0.9	0.488 mPa·s
298.15 K, x1 = 0.95	0.48 mPa·s
298.15 K, x2 = 0.1211	0.49 mPa·s
298.15 K, x2 = 0.2273	0.525 mPa·s
298.15 K, x2 = 0.3055	0.556 mPa·s
298.15 K, x2 = 0.3798	0.587 mPa·s
298.15 K, x2 = 0.4846	0.654 mPa·s
298.15 K, x2 = 0.5812	0.745 mPa·s
298.15 K, x2 = 0.6948	0.899 mPa·s
298.15 K, x2 = 0.7237	0.963 mPa·s
298.15 K, x2 = 0.8181	1.256 mPa·s
298.15 K, x2 = 0.9031	1.571 mPa·s
298.15 K, x2 = 0.955	1.803 mPa·s
303 K, x1 = 0.0983	1.07 mPa·s
303 K, x1 = 0.2085	0.86 mPa·s
303 K, x1 = 0.2911	0.71 mPa·s
303 K, x1 = 0.3728	0.58 mPa·s
303 K, x1 = 0.5014	0.56 mPa·s
303 K, x1 = 0.5976	0.54 mPa·s
303 K, x1 = 0.7483	0.48 mPa·s
303 K, x1 = 0.8001	0.47 mPa·s
303 K, x1 = 0.8939	0.45 mPa·s
308.15 K, x1 = 0.05	1.313 mPa·s
308.15 K, x1 = 0.1	1.142 mPa·s
308.15 K, x1 = 0.15	1.009 mPa·s
308.15 K, x1 = 0.2001	0.909 mPa·s
308.15 K, x1 = 0.25	0.824 mPa·s
308.15 K, x1 = 0.3	0.755 mPa·s
308.15 K, x1 = 0.35	0.697 mPa·s
308.15 K, x1 = 0.4	0.646 mPa·s
308.15 K, x1 = 0.45	0.606 mPa·s
308.15 K, x1 = 0.5	0.576 mPa·s
308.15 K, x1 = 0.55	0.549 mPa·s
308.15 K, x1 = 0.6	0.526 mPa·s
308.15 K, x1 = 0.65	0.507 mPa·s
308.15 K, x1 = 0.7	0.489 mPa·s
308.15 K, x1 = 0.75	0.474 mPa·s
308.15 K, x1 = 0.8	0.461 mPa·s
308.15 K, x1 = 0.85	0.452 mPa·s
308.15 K, x1 = 0.9	0.444 mPa·s
308.15 K, x1 = 0.95	0.44 mPa·s
313 K, x1 = 0.0983	0.86 mPa·s
313 K, x1 = 0.2085	0.7 mPa·s
313 K, x1 = 0.2911	0.61 mPa·s
313 K, x1 = 0.3728	0.54 mPa·s
313 K, x1 = 0.5014	0.48 mPa·s
313 K, x1 = 0.5976	0.46 mPa·s
313 K, x1 = 0.7483	0.45 mPa·s
313 K, x1 = 0.8001	0.43 mPa·s
313 K, x1 = 0.8939	0.43 mPa·s

O=[N+]([O-])[O-].O=[N+]([O-])[O-].[Mg+2] + O
viscosity [mPa·s], 100 kPa
Settings	x1 = 0.01	x1 = 0.03	x1 = 0.05	x1 = 0.07
298.15 K	1.138	1.6	2.409	4.609
323.15 K	0.707	0.9853	1.479	2.709

CCOCCn1cc[n+](C)c1.C[C@@H](O)[C@H](N)C(=O)[O-] + O
Settings	viscosity [mPa·s]
298.15 K, 100 kPa, x2 = 0.492	991.4
